The results in this text go back to ChEMBL document CHEMBL5614434, “A Lysosome-Targeting hNEU1 Inhibitor Treats Myocardial Infarction: A Potential Therapeutic Breakthrough” (J Med Chem, 2024).

In series [1] the test system is H9c2. Nature of the series: Cytotoxicity against rat H9c2 cells assessed as cell viability at 0.001 to 50 uM under normoxia condition by CCK-8 method. The series is classed as toxicity, cell-based. Particulars: h9c2, 50 µM, dose 0.001-50 µM. (In general: Tetrazolium dyes change colour on reduction, which living cells bring about.)
Series [2] in a line: Drug localization in Mitochondria of rat H9c2 cells by confocal microscopy based analysis. The format is ADME.
Series [3] can be described thus: Drug localization in lysosome of rat H9c2 cells by confocal microscopy based analysis. The series is classed as ADME, subcellular.
Series [4] is described as follows: Toxicity in isoproterenol-induced male C57/6J mouse model assessed as recovery of growth rate at 15 mg/kg, ip pretreated with isoproterenol for 3 days followed by compound addition and measured after 3 days. The format is organism-based. As to conditions: in vivo, 72 h, time 3 day.
A short description of series [5]: Permeability of compound in MDCK cells. The format is ADME, cell-based, Canis lupus familiaris. Particulars: dog, read-out: permeability.
In series [6] the test system is Mus musculus. Nature of the series: Cardioprotective activity against isoproterenol-induced myocardial injury in C57/6J mouse model assessed as decrease in CK-MB level in serum at 15 mg/kg, ip pretreated with isoproterenol for 3 days followed by compound addition and measured after 3 days by automatic biochemical analysis. The series is classed as functional, organism-based. Particulars: time 3.0 day.

In series [7] the test system is H9c2. Nature of the series: Induction of autophagy in isoproterenol-induced rat H9c2 cells assessed as downregulation of PARP1 expression by Western blot analysis. The format is functional, cell-based.
Series [8] is described as follows: Passive permeability in MDCK cells. The series is classed as ADME, cell-based, Canis lupus familiaris. As to conditions: dog, read-out: permeability.
The subject of series [9] is Mus musculus. Nature of the series: Cardioprotective activity against isoproterenol-induced myocardial injury in C57/6J mouse model assessed as reduction in cardiac swelling size at 15 mg/kg, ip pretreated with isoproterenol for 3 days followed by compound addition and measured after 3 days (reference value: 5.15 millimeter). The series is classed as functional. Particulars: time 3 day.

Series [10] relates to H9c2. Nature of the series: Induction of ATP production in isoproterenol-induced rat H9c2 cells at 0.1 micromol/L by fluorescence based analysis. The series is classed as functional. Particulars: dose 0.1 µmol/L.
The test system of series [11] is Mus musculus. Nature of the series: Cardioprotective activity against isoproterenol-induced myocardial injury in C57/6J mouse model assessed as decrease in heart weight ratio at 15 mg/kg, ip pretreated with isoproterenol for 3 days followed by compound addition and measured after 3 days (reference value: 0.56 %). The series is classed as functional. The arrangement: scale not given: the % may be the effect or the level left. As to conditions: time 3 day.

For series [12], the system named is H9c2. Nature of the series: Induction of apoptosis in isoproterenol-induced rat H9c2 cells assessed as late apoptotic cells at 0.1 micromol/L by annexin V-FITC and PI staining based flow cytometry analysis (reference value: 11.49%). The format is toxicity, cell-based. As to conditions: h9c2, 0.1 µM, dose 0.1 µmol/L.
In series [13] the test system is H9c2. Nature of the series: Inhibition of ROS production in isoproterenol-induced rat H9c2 cells assessed as reduction in DCF value at 0.1 uM by DCFH-DA staining based flow cytometry analysis (reference value: 371.9). The series is classed as functional. (Flow cytometry measures light scatter and fluorescence of single cells or particles in a stream.)
Series [14] concerns Mus musculus. Nature of the series: Cardioprotective activity against isoproterenol-induced myocardial injury in C57/6J mouse model assessed as suppression of mTORC1 overexpression at 15 mg/kg, ip pretreated with isoproterenol for 3 days followed by compound addition and measured after 3 days by immunohistochemistry analysis. The format is functional, organism-based. Particulars: time 3.0 day.

Series [15] concerns Mus musculus. Nature of the series: Cardioprotective activity against isoproterenol-induced myocardial injury in C57/6J mouse model assessed as effect on cTNI level in serum at 15 mg/kg, ip pretreated with isoproterenol for 3 days followed by compound addition and measured after 3 days by automatic biochemical analysis. The series is classed as functional, organism-based. As to conditions: time 3.0 day.

The test system of series [16] is Mus musculus. Nature of the series: Cardioprotective activity against isoproterenol-induced myocardial injury in C57/6J mouse model assessed as reduction in CK value in serum at 15 mg/kg, ip pretreated with isoproterenol for 3 days followed by compound addition and measured after 3 days by automatic biochemical analysis. The series is classed as functional, organism-based. Particulars: time 3.0 day.

Series [17] relates to H9c2. Nature of the series: Induction of autophagy in isoproterenol-induced rat H9c2 cells assessed as increase in LC3-I to LC3-II conversion by confocal microscopy based analysis. The series is classed as functional, cell-based.
In series [18] the test system is H9c2. Nature of the series: Induction of apoptosis in isoproterenol-induced rat H9c2 cells assessed as early apoptotic cells at 0.1 micromol/L by annexin V-FITC and PI staining based flow cytometry analysis (reference value: 10.37%). The series is classed as toxicity, cell-based. Particulars: h9c2, 0.1 µM, dose 0.1 µmol/L.
The test system of series [19] is H9c2. Nature of the series: Induction of autophagy in isoproterenol-induced rat H9c2 cells assessed as downregulation of P62 expression by Western blot analysis. The format is functional, cell-based. A general note: Immunoblotting shows a protein as a band on a membrane.

Activity calls are given as the source filed them. No cut-off for these calls is given here.

As to `CCC(CC)O[C@@H]1C=C(C(=O)OCCN(C)C)C[C@H](N)[C@H]1NC(C)=O`, in [1], the Activity result is “Non-Toxic”.

`CCC(CC)O[C@@H]1C=C(C(=O)OCCN2CCOCC2)C[C@H](NC(=S)Nc2ccc3c(c2)C(=O)OC32c3ccc(O)cc3Oc3cc(O)ccc32)[C@H]1NC(C)=O`: the Drug uptake entry in [2] and in series [3] was “Active” in each case.

In the case of `CCOC(=O)C1=C[C@@H](OC(CC)CC)[C@H](NC(C)=O)[C@@H](N)C1` [OSELTAMIVIR], the Activity result is “Non-Toxic” in [4]; 4.65 mm in series [9]; “Non-Toxic” in [1]; 38.3 nmol/mg in series [10]; 0.5% in series [11]; 8.91% in series [12]. Further, the Activity in series [13] was determined as 309.1; in series [18] it was 2.78%. The values for the Papp in series [5] and in series [8] were 58 ×10⁻⁶ cm/s and more than 20 ×10⁻⁶ cm/s, respectively. The result in series [6], in series [7], in [14], in [15], in series [16] and in series [19] was Active. In addition, in series [17], the result was inactive.

On to `CCC(CC)O[C@@H]1C=C(C(=O)OCCc2ccncc2)C[C@H](N)[C@H]1NC(C)=O`, for which, in series [1], the Activity entry is “Non-Toxic”.
